The values that follow come from US20190275097A1, “Lycopene from Momordica Cochinchinnensis Spreng., methods and formulations” (priority 2018, published 2019).

One series has as its system caco cell. The series is described as follows: Bioaccessibility studies using in-vitro digestion/caco cell techniques. In kind it is in vitro ADME. The conditions noted are these: carotenoids from Gac pulp. The text has this:
The good absorption and transport of carotenoids after gac pulp consumption are probably due to its soft texture and to these high levels of fatty acids. […] This is in sharp contrast to other carotenoid rich fruits, which show a relatively low carotenoid bioavailability due to the lack of uptake enhancing lipids.

The conditions of series [1]: Gac pulp consumed alone, 30-day feeding trial; cited from earlier work.

Structures are written as SMILES.

On to `CC1=C(/C=C/C(C)=C/C=C/C(C)=C/C=C/C=C(C)/C=C/C=C(C)/C=C/C2=C(C)CCCC2(C)C)C(C)(C)CCC1` [beta-carotene], for which the “bioavailability (bioaccessibility), in-vitro digestion/caco cell” value in the series on caco cell is “high bioavailability”. For the same compound, in series [1], the “bioavailability: change in the human circulation after feeding trial” value is on record as “significant increase”.
Regarding `CC(C)=CCC/C(C)=C/C=C/C(C)=C/C=C/C(C)=C/C=C/C=C(C)/C=C/C=C(C)/C=C/C=C(\C)CCC=C(C)C` [lycopene], the “bioavailability (bioaccessibility), in-vitro digestion/caco cell” value in the series with caco cell is listed as “high bioavailability”. The “bioavailability: change in the human circulation after feeding trial” value in series [1] is “significant increase”.
